{"source": "patent US20140073694A1", "about": "“CYSTAMINE ANALOGUES FOR THE TREATMENT OF PARKINSON'S DISEASE” (UNIVERSITE LAVAL, priority 2011, published 2014)", "system": "6-OHDA lesioned mice", "assay": "Unilateral striatal 6-OHDA mouse model, neurorestoration experiment (behaviour and post-mortem)", "format": "in vivo, C57BL/6 mice", "description": "Young adult (9-week old, 25 grams) male C57BL/6 mice were purchased from Charles River Laboratories (Montréal, QC, Canada). Animals were housed 4 per cage under standard conditions with free access to food and water, randomized and handled under the same conditions by one investigator. All experiments were performed in accordance with the Canadian Council on Animal Care and were approved by the Institutional Committee of the Centre Hospitalier de l'Université Laval (CHUL). Throughout the experiment, the health status of all mice included in the study was closely monitored for weight loss or other signs of health-related issues. All efforts were made to minimize animal pain and discomfort.\nThis protocol was based on the unilateral stereotaxic intra-striatal injection of 6-hydroxydopamine (6-OHDA). Intrastriatal administration of 6-OHDA creates a progressive and retrograde degenerative changes in DA neurons of the substantia nigra (Bjorklund et al., 1997; Costantini et al., 2001). Mice were anaesthetized using isoflurane and placed onto a stereotactic frame adapted for mice. 6-OHDA was dissolved at a concentration of 2 μg/μl in 0.9% saline and 0.02% ascorbic acid and 2 μl was injected in the right striatum at a rate of 0.5 μl/min. The needle was left in place for 3 min after the injection before retraction. The injection was performed using an Hamilton syringe according to the stereotaxic co-ordinates: AP: +0.04 cm, ML: −0.18 cm, DV: −0.31 cm (corresponding to the atlas of Allan P. 2008).\nTo serve as controls, other mice were subjected to the same surgical procedures, but only 2 μl of solvent (0.9% saline and 0.02% ascorbic acid) was injected in the same coordinates. The study was further divided into 2 distinct experiments: • 1) The neurorescuing effects of cystamine (cystamine dihydrochloride, Sigma, St. Louis, Mo.) in 6-OHDA leisoned mice. For this experiment, the first i.p. injection of 10 mg/kg cystamine was administered 3 days post surgery and the treatment continued daily for 14 days. • 2) The neurorestorative effects of cystamine (cystamine dihydrochloride, Sigma, St. Louis, Mo.) in 6-OHDA lesioned mice. The treatment of cystamine began 3 weeks post surgery, when the dopaminergic (DAergic) lesion is known to be stable and has reached its peak. The treatment was continued daily for 6 weeks.\nThe effects of cystamine on the 6-OHDA toxicity were studied in the following experimental groups: Group I, Sham+Saline; Group II, 6-OHDA+Saline; Group III; Sham+Cystamine; Group IV, 6-OHDA+Cystamine. In total, 40 mice (n=10 per group) were utilized for each experiment, monitored daily for weight variation, and ultimately sacrificed by perfusion 24 hrs after the last cystamine (or vehicle) injection.\nAnimals were sacrificed under deep anesthesia with ketamine/xylazine (Vetalar, Bioniche, Belleville, ON/Rompun, Bayer, Toronto, ON). All mice were subjected to intracardiac perfusion with RNAse free 0.1 M phosphate-buffered saline (PBS). After intracardiac perfusion, brains were collected and the posterior brain of each mice, comprising the entire mesencephalon, was post-fixed in 4% PFA for additional immunohistochemistry and in situ hybridization analyses. The anterior brain, comprising the right and left striatum, was snap-frozen and used for HPLC and WB analyses.\nCatecholamine quantification by HPLC, TH immunohistochemistry and in situ hybridization for Nurr1 and DAT were conducted as described in Example 1.\nThe loss of DAergic neurons was determined by stereological counts of TH-immunoreactive cells (identifiable somas) under bright-field illumination. Every 10th section through the SNc was analyzed using Stereo investigator software (MicroBrighffield, Colchester, Vt., USA) attached to an E800 Nikon microscope (Nikon Canada Inc., Mississauga, ON, Canada). After delineation of the SNc at low magnification (4× objective), a point grid was overlaid onto each section. […]"}
{"molecule": "NCCSSCCN", "note": "[cystamine, Cystamine]", "values": [{"measurement": "restoration of DA content in the lesioned striatum", "setting": "10 mg/kg daily for 6 weeks from 3 weeks post-lesion", "result": "did not significantly restore DA content"}, {"measurement": "cylinder test, limb-use asymmetry (percentage of contralateral contacts)", "setting": "10 mg/kg daily for 6 weeks from 3 weeks post-lesion, 6 and 9 weeks post-lesion", "result": "asymmetry was not visible"}, {"measurement": "apomorphine-induced contralateral rotations", "setting": "10 mg/kg daily for 6 weeks from 3 weeks post-lesion, 6 and 9 weeks post-surgery", "result": "significantly attenuated by the cystamine treatment"}, {"measurement": "decrease of striatal DA levels measured by HPLC", "setting": "6-OHDA lesioned mice, 10 mg/kg daily for 6 weeks from 3 weeks post-lesion", "result": 84, "unit": "%"}, {"measurement": "decrease in the total number of TH-positive neurons in the SNpc", "setting": "6-OHDA+cystamine vs sham+cystamine, 10 mg/kg daily for 6 weeks from 3 weeks post-lesion", "result": 65, "unit": "%"}, {"measurement": "DA turnover", "setting": "vs 6-OHDA mice treated with saline", "result": "strong tendency to normalise the DA turnover"}]}
